The text below walks through data of patent publication US20090131431A1, “Pyrazolo[3,4-b]pyridine compounds, and their use as a PDE4 inhibitors” (priority 2005, published 2009).

The target in the assay is T1, PDE4B (human recombinant) (Homo sapiens, UniProt Q07343).
T1 construct: made in house
Put plainly: Inhibition of PDE4B activity: SPA and/or Fluorescence Polarisation (FP) assay. The class given is biochemical. As to conditions: one reading (n=1) or average of 2 or more readings, read-out: PDE4B pIC50 (±about 0.5) (converted). Summed up:
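Human recombinant PDE4B activity measured by SPA with [3H]cAMP at about 10 nM, 1 h at ambient temperature, enzyme set for ≤20% substrate hydrolysis, or by IMAP FP with Fl-cAMP at about 40 nM, 40 min at ambient temperature under linear conditions. Inhibition curves fitted; values reported as pIC50.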
In general terms: Fluorescence polarisation rises when a labelled molecule tumbles more slowly, as on binding a larger partner.

Each structure is given as a SMILES string.

T1 sequence (Q07343 1-564 isoform Q07343-2): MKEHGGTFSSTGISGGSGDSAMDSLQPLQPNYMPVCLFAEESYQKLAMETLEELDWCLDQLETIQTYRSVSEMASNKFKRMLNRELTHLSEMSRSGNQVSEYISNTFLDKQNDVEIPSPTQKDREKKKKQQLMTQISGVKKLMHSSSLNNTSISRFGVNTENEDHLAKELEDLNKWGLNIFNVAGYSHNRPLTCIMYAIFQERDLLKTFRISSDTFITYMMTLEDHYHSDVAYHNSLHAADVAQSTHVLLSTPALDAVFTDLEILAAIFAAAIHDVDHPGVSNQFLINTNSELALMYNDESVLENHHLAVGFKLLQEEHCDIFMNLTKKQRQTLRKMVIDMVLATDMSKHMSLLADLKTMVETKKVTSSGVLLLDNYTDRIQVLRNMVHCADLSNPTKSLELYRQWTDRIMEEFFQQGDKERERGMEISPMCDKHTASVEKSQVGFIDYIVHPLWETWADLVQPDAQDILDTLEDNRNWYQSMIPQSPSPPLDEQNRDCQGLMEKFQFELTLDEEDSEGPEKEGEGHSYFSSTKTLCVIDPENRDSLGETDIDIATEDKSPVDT

Turning to `CCc1nc2c(cnn2CC)c(NC2CCOCC2)c1CNC(=O)c1ccccc1F` [Example 232, N-{[1,6-diethyl-4-(tetrahydro-2H-pyran-4-ylamino)-1H-pyrazolo[3,4-b]pyridin-5-yl]methyl}-2-fluorobenzamide], the IC50 is 0.01 to 0.1 nM.

In the case of `CCc1nc2c(cnn2CC)c(NC2CCOCC2)c1CNC(=O)c1cc(C)on1` [Example 233, N-{[1,6-diethyl-4-(tetrahydro-2H-pyran-4-ylamino)-1H-pyrazolo[3,4-b]pyridin-5-yl]methyl}-5-methyl-3-isoxazolecarboxamide], the IC50 was 0.01 to 0.1 nM.

Regarding `CCc1nc2c(cnn2CC)c(NC2CCOCC2)c1CNC(=O)c1cncs1` [Example 234, N-{[1,6-diethyl-4-(tetrahydro-2H-pyran-4-ylamino)-1H-pyrazolo[3,4-b]pyridin-5-yl]methyl}-1,3-thiazole-5-carboxamide], the IC50 was 0.126 to 1 nM.

In the case of `CCc1nc2c(cnn2CC)c(NC2CCOCC2)c1CNC(=O)c1ccsc1` [Example 235, N-{[1,6-diethyl-4-(tetrahydro-2H-pyran-4-ylamino)-1H-pyrazolo[3,4-b]pyridin-5-yl]methyl}-3-thiophenecarboxamide], the IC50 was 0.01 to 0.1 nM.

Regarding `CCc1nc2c(cnn2CC)c(NC2CCOCC2)c1CNC(=O)c1cnc(C)cn1` [Example 236, N-{[1,6-diethyl-4-(tetrahydro-2H-pyran-4-ylamino)-1H-pyrazolo[3,4-b]pyridin-5-yl]methyl}-5-methyl-2-pyrazinecarboxamide], the IC50 was 0.01 to 0.1 nM.

Turning to `CCc1nc2c(cnn2CC)c(NC2CCOCC2)c1CNC(=O)c1ccn(C)n1` [Example 238, N-{[1,6-diethyl-4-(tetrahydro-2H-pyran-4-ylamino)-1H-pyrazolo[3,4-b]pyridin-5-yl]methyl}-1-methyl-1H-pyrazole-3-carboxamide], the IC50 was 0.126 to 1 nM.

Regarding `CCc1nc2c(cnn2CC)c(NC2CCOCC2)c1CNC(=O)c1cnco1` [Example 239, N-{[1,6-diethyl-4-(tetrahydro-2H-pyran-4-ylamino)-1H-pyrazolo[3,4-b]pyridin-5-yl]methyl}-1,3-oxazole-5-carboxamide], the IC50 is 0.126 to 1 nM.

Consider `CCc1nc2c(cnn2CC)c(NC2CCN(C(N)=O)CC2)c1CNC(=O)c1ccco1` [Example 240, 4-[(1,6-diethyl-5-{[(2-furanylcarbonyl)amino]methyl}-1H-pyrazolo[3,4-b]pyridin-4-yl)amino]-1-piperidinecarboxamide], for which the IC50 was 0.01 to 0.1 nM.

As for `CCc1nc2c(cnn2CC)c(NC2CCN(C(N)=O)CC2)c1CNC(=O)c1ccc(NC(C)=O)cc1O` [Example 241, 4-({5-[({[4-(acetylamino)-2-hydroxyphenyl]carbonyl}amino)methyl]-1,6-diethyl-1H-pyrazolo[3,4-b]pyridin-4-yl}amino)-1-piperidinecarboxamide], the IC50 is 0.01 to 0.1 nM.

On to `CCc1nc2c(cnn2CC)c(NC2CCN(C(N)=O)CC2)c1CNC(=O)c1ccc(NC(C)=O)cc1` [Example 242, 4-({5-[({[4-(acetylamino)phenyl]carbonyl}amino)methyl]-1,6-diethyl-1H-pyrazolo[3,4-b]pyridin-4-yl}amino)-1-piperidinecarboxamide], for which the IC50 was 0.01 to 0.1 nM.

On to `CCc1nc2c(cnn2CC)c(NC2CCN(C(N)=O)CC2)c1CNC(=O)c1ccc(C(C)(C)C)cc1` [Example 243, 4-({5-[({[4-(1-dimethylethyl)phenyl]carbonyl}amino)methyl]-1,6-diethyl-1H-pyrazolo[3,4-b]pyridin-4-yl}amino)-1-piperidinecarboxamide], for which the IC50 is 0.01 to 0.1 nM.

Turning to `CCc1nc2c(cnn2CC)c(NC2CCN(C(N)=O)CC2)c1CNC(=O)c1cccc(NC(C)=O)c1` [Example 244, 4-({5-[({[3-(acetylamino)phenyl]carbonyl}amino)methyl]-1,6-diethyl-1H-pyrazolo[3,4-b]pyridin-4-yl}amino)-1-piperidinecarboxamide], the IC50 is 0.01 to 0.1 nM.

Take `CCc1nc2c(cnn2CC)c(NC2CCN(C(N)=O)CC2)c1CNC(=O)c1ccc(C)cc1O` [Example 245, 4-{[1,6-diethyl-5-({[(2-hydroxy-4-methylphenyl)carbonyl]amino}methyl)-1H-pyrazolo[3,4-b]pyridin-4-yl]amino}-1-piperidinecarboxamide]: the IC50 was 0.01 to 0.1 nM.

In the case of `CCc1nc2c(cnn2CC)c(NC2CCN(C(N)=O)CC2)c1CNC(=O)c1ccccc1F` [Example 246, 4-{[1,6-diethyl-5-({[(2-fluorophenyl)carbonyl]amino}methyl)-1H-pyrazolo[3,4-b]pyridin-4-yl]amino}-1-piperidinecarboxamide], the IC50 is 0.01 to 0.1 nM.

As to `CCc1nc2c(cnn2CC)c(NC2CCN(C(N)=O)CC2)c1CNC(=O)c1cccc(N2CCCC2=O)c1` [Example 247, 4-({1,6-diethyl-5-[({[3-(2-oxo-1-pyrrolidinyl)phenyl]carbonyl}amino)methyl]-1H-pyrazolo[3,4-b]pyridin-4-yl}amino)-1-piperidinecarboxamide], the IC50 was 0.01 to 0.1 nM.

`CCc1nc2c(cnn2CC)c(NC2CCN(C(N)=O)CC2)c1CNC(=O)c1ccc2c(=O)[nH][nH]c2c1` [Example 248, N-[(4-{[1-(aminocarbonyl)-4-piperidinyl]amino}-1,6-diethyl-1H-pyrazolo[3,4-b]pyridin-5-yl)methyl]-3-oxo-2,3-dihydro-1H-indazole-6-carboxamide]: the IC50 is 0.01 to 0.1 nM.

Turning to `CCc1nc2c(cnn2CC)c(NC2CCOCC2)c1CNC(=O)c1ccc(S(C)(=O)=O)cc1` [Example 249, N-{[1,6-diethyl-4-(tetrahydro-2H-pyran-4-ylamino)-1H-pyrazolo[3,4-b]pyridin-5-yl]methyl}-4-(methylsulfonyl)benzamide], the IC50 was 0.126 to 1 nM.

For `CCc1nc2c(cnn2CC)c(NC2CCOCC2)c1CNC(=O)c1ccccc1O` [Example 250, N-{[1,6-diethyl-4-(tetrahydro-2H-pyran-4-ylamino)-1H-pyrazolo[3,4-b]pyridin-5-yl]methyl}-2-hydroxybenzamide], the IC50 was 0.01 to 0.1 nM.

`CCc1nc2c(cnn2CC)c(NC2CCOCC2)c1CNC(=O)c1ccc(NC(C)=O)cc1O` [Example 251, 4-(acetylamino)-N-{[1,6-diethyl-4-(tetrahydro-2H-pyran-4-ylamino)-1H-pyrazolo[3,4-b]pyridin-5-yl]methyl}-2-hydroxybenzamide]: the IC50 was 0.01 to 0.1 nM.

Consider `CCc1nc2c(cnn2CC)c(NC2CCOCC2)c1CNC(=O)c1ccc(C(C)(C)C)cc1` [Example 252, N-{[1,6-diethyl-4-(tetrahydro-2H-pyran-4-ylamino)-1H-pyrazolo[3,4-b]pyridin-5-yl]methyl}-4-(1,1-dimethylethyl)benzamide], for which the IC50 is 0.01 to 0.1 nM.

In the case of `CCc1nc2c(cnn2CC)c(NC2CCOCC2)c1CNC(=O)c1ccc(C(N)=O)cc1` [Example 253, N-{[1,6-diethyl-4-(tetrahydro-2H-pyran-4-ylamino)-1H-pyrazolo[3,4-b]pyridin-5-yl]methyl}-1,4-benzenedicarboxamide], the IC50 was 0.01 to 0.1 nM.

For `CCc1nc2c(cnn2CC)c(NC2CCOCC2)c1CNC(=O)c1ccc(C)cc1O` [Example 254, N-{[1,6-diethyl-4-(tetrahydro-2H-pyran-4-ylamino)-1H-pyrazolo[3,4-b]pyridin-5-yl]methyl}-2-hydroxy-4-methylbenzamide], the IC50 is 0.01 to 0.1 nM.

Take `CCc1nc2c(cnn2CC)c(NC2CCOCC2)c1CNC(=O)c1ccc(C(=O)NC)cc1` [Example 255, N-{[1,6-diethyl-4-(tetrahydro-2H-pyran-4-ylamino)-1H-pyrazolo[3,4-b]pyridin-5-yl]methyl}-N′-methyl-1,4-benzenedicarboxamide]: the IC50 was 0.01 to 0.1 nM.

As to `CCc1nc2c(cnn2CC)c(NC2CCOCC2)c1CNC(=O)c1ccc(C(C)(C)C)cc1O` [Example 256, N-{[1,6-diethyl-4-(tetrahydro-2H-pyran-4-ylamino)-1H-pyrazolo[3,4-b]pyridin-5-yl]methyl}-4-(1,1-dimethylethyl)-2-hydroxybenzamide], the IC50 is 0.01 to 0.1 nM.

Regarding `CCc1nc2c(cnn2CC)c(NC2CCOCC2)c1CNC(=O)c1ccc2c(=O)[nH][nH]c2c1` [Example 257, N-{[1,6-diethyl-4-(tetrahydro-2H-pyran-4-ylamino)-1H-pyrazolo[3,4-b]pyridin-5-yl]methyl}-3-oxo-2,3-dihydro-1H-indazole-6-carboxamide], the IC50 was 0.01 to 0.1 nM.

Consider `CCc1nc2c(cnn2CC)c(NC2CCOCC2)c1CNC(=O)c1ccc2c(c1)CCCS2(=O)=O` [Example 258, N-{[1,6-diethyl-4-(tetrahydro-2H-pyran-4-ylamino)-1H-pyrazolo[3,4-b]pyridin-5-yl]methyl}-3,4-dihydro-2H-1-benzothiopyran-6-carboxamide 1,1-dioxide], for which the IC50 was 0.01 to 0.1 nM.

`CCn1ncc2c(NC3CCN(C(N)=O)CC3)c(CNC(=O)c3ccc(S(C)(=O)=O)cc3)c(C)nc21` [Example 259, 4-({1-ethyl-6-methyl-5-[({[4-(methylsulfonyl)phenyl]carbonyl}amino)methyl]-1H-pyrazolo[3,4-b]pyridin-4-yl}amino)-1-piperidinecarboxamide]: the IC50 was 0.126 to 1 nM.

On to `CCn1ncc2c(NC3CCN(C(N)=O)CC3)c(CNC(=O)c3ccccc3O)c(C)nc21` [Example 260, 4-{[1-ethyl-5-({[(2-hydroxyphenyl)carbonyl]amino}methyl)-6-methyl-1H-pyrazolo[3,4-b]pyridin-4-yl]amino}-1-piperidinecarboxamide], for which the IC50 is 0.01 to 0.1 nM.

Regarding `CCn1ncc2c(NC3CCN(C(N)=O)CC3)c(CNC(=O)c3ccc(NC(C)=O)cc3O)c(C)nc21` [Example 261, 4-({5-[({[4-(acetylamino)-2-hydroxyphenyl]carbonyl}amino)methyl]-1-ethyl-6-methyl-1H-pyrazolo[3,4-b]pyridin-4-yl}amino)-1-piperidinecarboxamide], the IC50 is 0.01 to 0.1 nM.

Take `CCn1ncc2c(NC3CCN(C(N)=O)CC3)c(CNC(=O)c3ccc(C(C)(C)C)cc3)c(C)nc21` [Example 262, 4-({5-[({[4-(1,1-dimethylethyl)phenyl]carbonyl}amino)methyl]-1-ethyl-6-methyl-1H-pyrazolo[3,4-b]pyridin-4-yl}amino)-1-piperidinecarboxamide]: the IC50 was 0.01 to 0.1 nM.
